The record followed here is ChEMBL document CHEMBL5120917, “Ferroptosis Inhibitory Aromatic Abietane Diterpenoids from Ajuga decumbens and Structural Revision of Two 3,4-Epoxy Group-Containing Abietanes” (J Nat Prod, 2022).

Calls of active or inactive are those of the source. No cut-off for these calls is given here.

Series [1] is described as follows: Cytotoxicity against […] HT-22 cells assessed as reduction in cell viability measured after 24 hrs by MTT assay. The class given is toxicity, cell-based. The note with it: mouse. (In general: Formazan colour is commonly taken as a measure of viable cells.)
Series [2] concerns HT-22. Nature of the series: Anti-ferroptotic activity against RSL3-induced ferroptosis in […] HT-22 cells assessed as cell viability measured after 24 hrs by MTT assay. The format is functional, cell-based. The note with it: Mus musculus, HT-22, 24 h.
A short description of series [3]: Antioxidant activity assessed as DPPH radical scavenging activity at 100 uM measured for 30 mins by microplate spectrophotometric analysis. The class given is functional. A general note: Loss of DPPH colour is used to gauge radical scavenging.
Series [4] in a line: Metal chelating activity assessed as Fe2+-compound complex formation by UV-visible spectrophotometry.
The subject of series [5] is HT-22. Nature of the series: Anti-ferroptotic activity against RSL3-induced ferroptosis in […] HT-22 cells assessed as cell viability at 1 uM measured after 24 hrs by MTT assay. The class given is functional. Particulars: read-out: Activity.
For series [6], the system named is HT-22. In words: Reduction in lipid ROS accumulation in RSL-3 treated […] HT-22 cells assessed as fluorescence intensity incubated for 4 hrs by C11-BODIPY staining based flow cytometry analysis. The class given is functional, cell-based. Particulars: Mus musculus, dose 25-100 nM. For orientation: In flow cytometry, cells or beads pass a laser one at a time.
The test system of series [7] is HT-22. Nature of the series: Reduction in cytosolic ROS accumulation in RSL-3 treated […] HT-22 cells assessed as fluorescence intensity incubated for 4 hrs by carboxy-H2DCFDA staining based flow cytometry analysis. The class given is functional, cell-based. Particulars: Mus musculus, dose 25-100 nM.
Series [8] relates to HT-22. In words: Reversal of RSL-3 induced PTGS2 mRNA expression in […] HT-22 cells incubated for 4 hrs by […] analysis. The format is functional, cell-based. Particulars: Mus musculus, dose 25-100 nM.

For orientation: CC50 means the concentration giving 50% cytotoxicity. As usually defined, the EC50 is the concentration needed to bring the measured effect to its halfway point. `Cc1coc2c(O)c3c(c(O)c12)C(=O)C=C1[C@]3(C)CC[C@]2(C)O[C@]12C`: the CC50 at 24 h in series [1] is greater than 40000 nM. The EC50 in the series with HT-22 [2] was determined as 348 nM. In addition, in series [3], the outcome was Active.
Regarding `C=CCc1c(O)c2c(c(O)c1OC)[C@@]1(C)CCC(C)=C(C)C1=CC2=O`, the cytotoxic concentration (CC50) at 24 h in series [1] is greater than 40000 nM. The EC50 with HT-22 [2] amounted to 308 nM. Also, the result in series [3] was Active.
Turning to `CCOC(=O)c1ccc(NC2CCCCC2)c(N)c1`, in the series on HT-22 [2], the EC50 was 81.2 nM.
`C[C@@H]1COc2c(O)c3c(c(O)c21)C(=O)C=C1[C@]3(C)CC[C@]2(C)O[C@]12C`: in series [1], the cytotoxic concentration (CC50) at 24 h is greater than 40000 nM. Moreover, the EC50 with HT-22 [2] came out at 406 nM. Moreover, the outcome in series [3] was Active.
`CC1=C(C)C2=CC(=O)c3c(c(O)c4oc(C)cc4c3O)[C@@]2(C)CC1`: the CC50 at 24 h in series [1] was greater than 40000 nM. In addition, the EC50 with HT-22 [2] turned out to be 526 nM. Besides, the result in series [3] was Active.
As to `CC1=C(C)C2=CC(=O)c3c(O)c4c(c(O)c3[C@@]2(C)CC1)OC[C@H]4C`, the CC50 at 24 h in series [1] is greater than 40000 nM. Further, in the series with HT-22 [2], the EC50 stood at 76.2 nM. Also, the result in series [3] was Active.
Regarding `CC(=O)N(O)CCCCCNC(=O)CCC(=O)N(O)CCCCCNC(=O)CCC(=O)N(O)CCCCCN`, the result in series [4] was Active.
`CC1=C(C)C2=CC(=O)c3c(O)c4c(c(O)c3[C@@]2(C)CC1=O)OC[C@H]4C`: the viability at 1 µM with HT-22 [5] is less than 50%. Moreover, the CC50 at 24 h in series [1] was greater than 40000 nM. Besides, in series [3], the outcome was Active.
Consider `CC1=C(C)C2=CC(=O)[C@@]34O[C@@]3(C(=O)c3oc(C)cc3C4=O)[C@@]2(C)CC1`, for which the viability at 1 µM with HT-22 [5] was less than 50%. The CC50 at 24 h in series [1] was greater than 40000 nM.
Take `CC1=C(C)C2=CC(=O)c3c(c(O)c4occ(C)c4c3O)[C@@]2(C)CC1`: the result (with HT-22 [6]; in the series on HT-22 [7]; in the series with HT-22 [8]; in series [3]) was Active. Also, the CC50 at 24 h in series [1] is greater than 40000 nM. For the same compound, in the series with HT-22 [2], the EC50 turned out to be 56.1 nM.
`C[C@@H]1COc2c(O)c3c(c(O)c21)C(=O)CC1C(C)(C)CCC[C@]31C` (some centres not stated): the viability at 1 µM with HT-22 [5] is less than 50%. In addition, the CC50 at 24 h in series [1] is greater than 40000 nM.
The matching figures for `CC1=C(C)C2=CC(=O)[C@@]34O[C@@]3(C(=O)c3occ(C)c3C4=O)[C@@]2(C)CC1`: less than 50% and greater than 40000 nM.
